The test system of the assay is T1, UGT95B17.
T1 construct: full-length ORF in pGEX-4T-1 (N-terminal GST tag of vector)
The assay is described as follows: UDP-Glo glycosyltransferase assay. It is filed as biochemical, Camellia sinensis. The settings on record: UDP-glucose co-substrate, pH 7.5, 25 °C, 40 min; read-out: apparent KM.

Turning to `O=C(O)c1ccc(O)cc1O` [2,4-DHBA], the Km was 0.81 ± 0.26 µM. With `O=C(O)c1cccc(O)c1O` [2,3-DHBA], the Km was found to be 3.31 ± 0.58 µM. As for `O=C(O)c1cc(O)ccc1O` [2,5-DHBA], the Michaelis constant (Km) stood at 0.31 ± 0.11 µM.

Values taken from paper PMC10870048, “2,4‐Dihydroxybenzoic Acid, a Novel SA Derivative, Controls Plant Immunity via UGT95B17‐Mediated Glucosylation: A Case Study in Camellia Sinensis” (Advanced Science, 2023).
